System: Nrf2
Assay: ARE (Antioxidant Response Element)-luciferase reporter assay in ARE-luciferase reporter-stably-expressing HaCaT cell line
Format: cell-based
Conditions: HaCaT ARE-luciferase reporter cells, 24 hours
Description: The Nrf2-activating action of conophylline (crystal) which was isolated and purified from Ervatamia microphylla, which is a plant of the Apocynaceae, by the method described in JP4696303B was evaluated by ARE (Antioxidant Response Element)-luciferase reporter assay, which is known as a monitoring system for the Nrf2 antioxidant pathway. Specifically, a plasmid was obtained by inserting a polynucleotide having a sequence in which ARE sequence was repeated twice ([…]: SEQ ID NO: 1) into the multiple cloning site of pNL2.2 [NlucP/Hygro] Vector (Promega Corporation), which is a vector for luciferase reporter assay, and the plasmid was introduced into HaCaT cells (DKFZ) using Cell Line Nucleofector Kit V (Lonza) by electroporation. After 24 hours, by adding hygromycin at a final concentration of 600 μg/mL and selecting drug-resistant cells, an ARE-luciferase reporter-stably-expressing HaCaT cell line having hygromycin resistance was established. […] After 24 hours, the luciferase activities were measured using Nano-Glo Luciferase Assay System (Promega Corporation) according to the protocol, and thus the Nrf2-activating action of conophylline was evaluated.

Compound | luciferase activity when Nrf2 inhibitor ML-385 was added together with conophylline (ML-385 20 μM added together with conophylline 1 μg/mL) | luciferase activity (Nrf2-activating action), relative to DMSO control regarded as 1 (conophylline at various final concentrations, FIG. 1)
Cc1ccccc1C(=O)N1CCc2cc(-c3nc(NC(=O)Cc4ccc5c(c4)OCO5)sc3C)ccc21 [ML-385] | decreased considerably | 
CC[C@@]12CC(C(=O)OC)=C3Nc4cc5c(cc4[C@@]34CCN(C[C@H]3O[C@H]31)[C@@H]24)[C@@H]1[C@H](O5)[C@@H](O)[C@@]2(CC)CC(C(=O)OC)=C3Nc4c(cc(O)c(OC)c4OC)[C@@]34CCN1[C@@H]24 [conophylline] |  | enhanced the luciferase activity in a concentration-dependent manner

Reference: patent US20260224557A1, “NRF2 ACTIVATOR” (Ivy Cosmetics Co., Ltd., priority 2023, published 2026)
